# From paper PMC5218480 (PLoS ONE, 2017)
# System: MV-4-11 cells
# Experiment: Gene expression microarray analysis (Affymetrix PrimeView) and GSEA
# Type: cell-based, human
# Parameters: RFU PODN (11730768_x_at) / Fold change /veh PODN (11730768_x_at) / RFU LINC00158 (11744669_a_at) / Fold change /veh LINC00158 (11744669_a_at) / RFU DUSP10 (11751237_a_at) / Fold change /veh DUSP10 (11751237_a_at) / RFU ID3 (11757404_x_at) / Fold change /veh ID3 (11757404_x_at) / RFU PLEKHG5 (11737974_s_at) / Fold change /veh PLEKHG5 (11737974_s_at) / RFU LRRC4B (11730491_at) / Fold change /veh LRRC4B (11730491_at) / RFU GIMAP4 (11747438_a_at) / Fold change /veh GIMAP4 (11747438_a_at) / RFU KRT8 (11758183_x_at) / Fold change /veh KRT8 (11758183_x_at) / RFU CNN1 (11734310_a_at) / Fold change /veh CNN1 (11734310_a_at) / RFU VPS37D (11726825_at) / Fold change /veh VPS37D (11726825_at) / RFU C10orf10 (11716522_x_at) / Fold change /veh C10orf10 (11716522_x_at) / RFU KIR2DL2 /// KIR2DL4 /// KIR2DL5A /// KIR2DL5B /// KIR2DS1 /// KIR2DS2 /// KIR2DS3 /// KIR2DS4 /// KIR3DL3 /// KIR3DL3 /// KIR3DS1 (11738374_at) / Fold change /veh KIR2DL2 /// KIR2DL4 /// KIR2DL5A /// KIR2DL5B /// KIR2DS1 /// KIR2DS2 /// KIR2DS3 /// KIR2DS4 /// KIR3DL3 /// KIR3DL3 /// KIR3DS1 (11738374_at) / RFU C1QL1 (11718748_at) / Fold change /veh C1QL1 (11718748_at) / RFU TMPRSS4 (11747572_a_at) / Fold change /veh TMPRSS4 (11747572_a_at) / RFU HAMP (11756126_x_at) / Fold change /veh HAMP (11756126_x_at) / RFU RNFT2 (11725882_a_at) / Fold change /veh RNFT2 (11725882_a_at) / RFU NR4A2 (11747474_a_at) / Fold change /veh NR4A2 (11747474_a_at) / RFU ABCC12 (11746883_a_at) / Fold change /veh ABCC12 (11746883_a_at) / RFU TMEM136 (11760407_x_at) / Fold change /veh TMEM136 (11760407_x_at) / RFU CLDN22 /// WWC2 (11732394_at) / Fold change /veh CLDN22 /// WWC2 (11732394_at) / RFU HLA-DPB1 (11760878_x_at) / Fold change /veh HLA-DPB1 (11760878_x_at) / RFU SPINT1 (11716480_a_at) / Fold change /veh SPINT1 (11716480_a_at) / RFU GAP43 (11754022_s_at) / Fold change /veh GAP43 (11754022_s_at) / RFU A4GNT (11735810_at) / Fold change /veh A4GNT (11735810_at) / RFU PRB3 (11715151_x_at) / Fold change /veh PRB3 (11715151_x_at) / RFU TUBB4B (11761932_at) / Fold change /veh TUBB4B (11761932_at) / RFU CAPN14 (11732068_a_at) / Fold change /veh CAPN14 (11732068_a_at) / RFU TMCC2 (11721928_a_at) / Fold change /veh TMCC2 (11721928_a_at) / RFU IRGQ (11745062_a_at) / Fold change /veh IRGQ (11745062_a_at) / RFU FAM174B (11720279_a_at) / Fold change /veh FAM174B (11720279_a_at) / RFU TMPRSS4 (11748680_a_at) / Fold change /veh TMPRSS4 (11748680_a_at) / RFU FAM212B (11763350_a_at) / Fold change /veh FAM212B (11763350_a_at) / RFU PLEKHG5 (11743358_a_at) / Fold change /veh PLEKHG5 (11743358_a_at) / RFU ZSCAN30 (11745921_a_at) / Fold change /veh ZSCAN30 (11745921_a_at) / RFU CMKLR1 (11741424_a_at) / Fold change /veh CMKLR1 (11741424_a_at) / RFU LOC101060620 /// MAPK8IP1 (11723275_at) / Fold change /veh LOC101060620 /// MAPK8IP1 (11723275_at) / RFU SPTSSB (11747773_x_at) / Fold change /veh SPTSSB (11747773_x_at) / RFU PRSS12 (11739890_at) / Fold change /veh PRSS12 (11739890_at) / RFU BIN1 (11741810_x_at) / Fold change /veh BIN1 (11741810_x_at) / RFU WNT11 (11732464_a_at) / Fold change /veh WNT11 (11732464_a_at) / RFU C10orf10 (11716521_a_at) / Fold change /veh C10orf10 (11716521_a_at) / RFU C5orf56 (11738089_at) / Fold change /veh C5orf56 (11738089_at) / RFU CYB561 (11721691_x_at) / Fold change /veh CYB561 (11721691_x_at) / RFU ANKRD19P (11752326_a_at) / Fold change /veh ANKRD19P (11752326_a_at) / RFU OR2T12 /// OR2T33 /// OR2T8 (11738714_s_at) / Fold change /veh OR2T12 /// OR2T33 /// OR2T8 (11738714_s_at) / RFU VCAN (11748164_a_at) / Fold change /veh VCAN (11748164_a_at) / RFU JSRP1 (11732532_at) / Fold change /veh JSRP1 (11732532_at) / RFU KRTAP10-11 (11738290_x_at) / Fold change /veh KRTAP10-11 (11738290_x_at) / RFU MYO3A (11730013_a_at) / Fold change /veh MYO3A (11730013_a_at) / RFU EBF3 (11725865_a_at) / Fold change /veh EBF3 (11725865_a_at) / RFU CAMK2N1 (11719241_x_at) / Fold change /veh CAMK2N1 (11719241_x_at) / RFU C5orf56 (11738088_a_at) / Fold change /veh C5orf56 (11738088_a_at) / RFU OLFML3 (11715873_a_at) / Fold change /veh OLFML3 (11715873_a_at) / RFU LOC100653217 /// NTM (11731650_a_at) / Fold change /veh LOC100653217 /// NTM (11731650_a_at) / RFU MAPK11 (11762145_a_at) / Fold change /veh MAPK11 (11762145_a_at) / RFU FIZ1 (11724087_x_at) / Fold change /veh FIZ1 (11724087_x_at) / RFU OASL (11726364_x_at) / Fold change /veh OASL (11726364_x_at) / RFU SOX15 (11748057_x_at) / Fold change /veh SOX15 (11748057_x_at) / RFU CD79A (11719716_a_at) / Fold change /veh CD79A (11719716_a_at) / RFU HIST1H1D (11736915_at) / Fold change /veh HIST1H1D (11736915_at) / RFU CASKIN2 (11723855_a_at) / Fold change /veh CASKIN2 (11723855_a_at) / RFU LOC730098 (11760151_x_at) / Fold change /veh LOC730098 (11760151_x_at) / RFU OR4N2 (11742367_at) / Fold change /veh OR4N2 (11742367_at) / RFU PRRT2 (11749266_a_at) / Fold change /veh PRRT2 (11749266_a_at) / RFU SNX32 (11753110_a_at) / Fold change /veh SNX32 (11753110_a_at) / RFU CDHR5 (11726645_a_at) / Fold change /veh CDHR5 (11726645_a_at) / RFU RCAN1 (11760418_a_at) / Fold change /veh RCAN1 (11760418_a_at) / RFU FAM167A (11723789_a_at) / Fold change /veh FAM167A (11723789_a_at) / RFU FAM26E (11764081_at) / Fold change /veh FAM26E (11764081_at) / RFU ISYNA1 (11749810_s_at) / Fold change /veh ISYNA1 (11749810_s_at) / RFU ACY1 (11761880_at) / Fold change /veh ACY1 (11761880_at) / RFU 11764098_at / Fold change /veh 11764098_at / RFU SAMD14 (11745864_x_at) / Fold change /veh SAMD14 (11745864_x_at) / RFU NPB (11741838_a_at) / Fold change /veh NPB (11741838_a_at) / RFU TMPRSS6 (11731388_a_at) / Fold change /veh TMPRSS6 (11731388_a_at) / RFU KRTAP10-2 (11738614_at) / Fold change /veh KRTAP10-2 (11738614_at) / RFU ARHGAP8 /// PRR5-ARHGAP8 (11727945_x_at) / Fold change /veh ARHGAP8 /// PRR5-ARHGAP8 (11727945_x_at) / RFU KRTAP5-7 /// NADSYN1 (11734609_at) / Fold change /veh KRTAP5-7 /// NADSYN1 (11734609_at) / RFU RASL12 (11751679_a_at) / Fold change /veh RASL12 (11751679_a_at) / RFU CDKN2B (11736163_a_at) / Fold change /veh CDKN2B (11736163_a_at) / RFU PRF1 (11729649_at) / Fold change /veh PRF1 (11729649_at) / RFU, ZNF638 /// ZNF638-IT1 / Fold change vs veh, ZNF638 /// ZNF638-IT1 / RFU, PANK3 / Fold change vs veh, PANK3 / RFU, SH3YL1 / Fold change vs veh, SH3YL1 / RFU, ZEB2 / Fold change vs veh, ZEB2 / RFU, NRIP1 / Fold change vs veh, NRIP1 / RFU, PTTG1IP / Fold change vs veh, PTTG1IP / RFU, CAPN2 / Fold change vs veh, CAPN2 / RFU, MED14 / Fold change vs veh, MED14 / RFU, SNORA58 / Fold change vs veh, SNORA58 / RFU, C1orf63 / Fold change vs veh, C1orf63 / RFU, LRRFIP1 / Fold change vs veh, LRRFIP1 / RFU, NDUFAF7 / Fold change vs veh, NDUFAF7 / RFU, SLC12A2 / Fold change vs veh, SLC12A2 / RFU, IBTK / Fold change vs veh, IBTK / RFU, ESF1 / Fold change vs veh, ESF1 / Fold change vs veh, TMEM50B / RFU, TAOK1 / Fold change vs veh, TAOK1 / RFU, ACBD3 / Fold change vs veh, ACBD3 / RFU, TMA16 / Fold change vs veh, TMA16 / RFU, RWDD3 / Fold change vs veh, RWDD3 / RFU, BCAT1 / Fold change vs veh, BCAT1 / RFU, EDEM3 / Fold change vs veh, EDEM3 / RFU, TMEM33 / Fold change vs veh, TMEM33 / RFU, WDR75 / Fold change vs veh, WDR75 / RFU, AHCTF1 / Fold change vs veh, AHCTF1 / RFU, TFRC / Fold change vs veh, TFRC / RFU, ZDHHC17 / Fold change vs veh, ZDHHC17 / RFU, NOM1 / Fold change vs veh, NOM1 / RFU, ARL8B / Fold change vs veh, ARL8B / RFU, ZBTB11 / Fold change vs veh, ZBTB11 / RFU, TAMM41 / Fold change vs veh, TAMM41 / RFU, KIAA1704 /// LOC100996395 / Fold change vs veh, KIAA1704 /// LOC100996395 / RFU, ING1 / Fold change vs veh, ING1 / RFU, TRMT61B / Fold change vs veh, TRMT61B / RFU, FUBP3 / Fold change vs veh, FUBP3 / RFU, TP53 / Fold change vs veh, TP53 / RFU, TNKS2 / Fold change vs veh, TNKS2 / RFU, ZFP14 / Fold change vs veh, ZFP14 / RFU, ACTR2 / Fold change vs veh, ACTR2 / RFU, PPP3R1 / Fold change vs veh, PPP3R1 / RFU, PIK3R1 / Fold change vs veh, PIK3R1 / RFU, HNRNPA1 / Fold change vs veh, HNRNPA1 / RFU, RNF170 / Fold change vs veh, RNF170 / RFU, ZNF28 / Fold change vs veh, ZNF28 / RFU, RNGTT / Fold change vs veh, RNGTT / RFU, OGT / Fold change vs veh, OGT / RFU, BRD1 / Fold change vs veh, BRD1 / RFU, MARS / Fold change vs veh, MARS / RFU, ZNF655 / Fold change vs veh, ZNF655 / RFU, FAHD1 / Fold change vs veh, FAHD1 / RFU, BDP1 / Fold change vs veh, BDP1 / RFU, LRRCC1 / Fold change vs veh, LRRCC1 / RFU, ARID1A / Fold change vs veh, ARID1A / RFU, ZNF146 / Fold change vs veh, ZNF146 / RFU, ZNF330 / Fold change vs veh, ZNF330 / RFU, GPN3 / Fold change vs veh, GPN3 / RFU, C9orf123 / Fold change vs veh, C9orf123 / RFU, N4BP2L2 / Fold change vs veh, N4BP2L2 / RFU, ARFIP1 / Fold change vs veh, ARFIP1 / RFU, FAM179B / Fold change vs veh, FAM179B / RFU, BCL10 / Fold change vs veh, BCL10 / RFU, UHRF1BP1L / Fold change vs veh, UHRF1BP1L / RFU, BET1 / Fold change vs veh, BET1 / RFU, CNOT2 / Fold change vs veh, CNOT2 / RFU, ZNF268 / Fold change vs veh, ZNF268 / Fold change vs veh, ZNF507 / RFU, DGCR2 / Fold change vs veh, DGCR2 / RFU, WDSUB1 / Fold change vs veh, WDSUB1 / Fold change vs veh, HSP90B1 /// MIR3652 / RFU, ADSS / Fold change vs veh, ADSS / RFU, GK / Fold change vs veh, GK / RFU, ZNF148 / Fold change vs veh, ZNF148 / RFU, TAF9 / Fold change vs veh, TAF9 / RFU, SLC1A5 / Fold change vs veh, SLC1A5 / RFU, SLMO2 / Fold change vs veh, SLMO2 / RFU, ABCC4 / Fold change vs veh, ABCC4 / RFU, LOC101060439 /// RAP1B / Fold change vs veh, LOC101060439 /// RAP1B / RFU, RFX7 / Fold change vs veh, RFX7 / RFU, GTPBP10 / Fold change vs veh, GTPBP10 / RFU, CNEP1R1 / Fold change vs veh, CNEP1R1 / RFU, BIVM-ERCC5 /// ERCC5 / Fold change vs veh, BIVM-ERCC5 /// ERCC5 / RFU, ILF3 / Fold change vs veh, ILF3 / RFU 11762660_at / Fold change /veh 11762660_at / RFU VCAN (11757783_s_at) / Fold change /veh VCAN (11757783_s_at) / RFU DDX43 (11728927_at) / Fold change /veh DDX43 (11728927_at) / RFU KRT8 (11758188_x_at) / Fold change /veh KRT8 (11758188_x_at) / RFU NKD1 (11759106_at) / Fold change /veh NKD1 (11759106_at) / RFU SRD5A1 (11742802_a_at) / Fold change /veh SRD5A1 (11742802_a_at) / RFU TPSAB1 /// TPSB2 (11721975_s_at) / Fold change /veh TPSAB1 /// TPSB2 (11721975_s_at) / RFU GSTM3 (11746129_a_at) / Fold change /veh GSTM3 (11746129_a_at) / RFU IL23R (11737362_x_at) / Fold change /veh IL23R (11737362_x_at) / RFU TMEM51 (11727254_a_at) / Fold change /veh TMEM51 (11727254_a_at) / RFU PIWIL2 (11732686_x_at) / Fold change /veh PIWIL2 (11732686_x_at) / RFU ORM1 (11744905_x_at) / Fold change /veh ORM1 (11744905_x_at) / RFU CCDC152 (11743942_at) / Fold change /veh CCDC152 (11743942_at) / RFU ECM1 (11717891_a_at) / Fold change /veh ECM1 (11717891_a_at) / RFU IL23R (11748794_a_at) / Fold change /veh IL23R (11748794_a_at) / RFU TNFAIP8L3 (11732012_x_at) / Fold change /veh TNFAIP8L3 (11732012_x_at) / RFU MBOAT4 (11741988_at) / Fold change /veh MBOAT4 (11741988_at) / RFU 11764193_at / Fold change /veh 11764193_at / RFU TMEM53 (11763286_at) / Fold change /veh TMEM53 (11763286_at) / RFU MAGEB2 (11727129_at) / Fold change /veh MAGEB2 (11727129_at) / RFU TMEM200A (11744735_a_at) / Fold change /veh TMEM200A (11744735_a_at) / RFU CCDC152 (11751479_a_at) / Fold change /veh CCDC152 (11751479_a_at) / RFU FAM211A (11726209_a_at) / Fold change /veh FAM211A (11726209_a_at) / RFU RGS16 (11746705_a_at) / Fold change /veh RGS16 (11746705_a_at) / RFU VCAN (11755009_s_at) / Fold change /veh VCAN (11755009_s_at) / RFU RHOB (11743442_s_at) / Fold change /veh RHOB (11743442_s_at) / RFU RGS16 (11720943_a_at) / Fold change /veh RGS16 (11720943_a_at) / RFU RGS16 (11720944_at) / Fold change /veh RGS16 (11720944_at) / RFU, VPS4B / Fold change vs veh, VPS4B / RFU, CREB1 / Fold change vs veh, CREB1 / RFU, DNAJC13 / Fold change vs veh, DNAJC13 / RFU, GNAQ / Fold change vs veh, GNAQ / RFU, CDK5R1 / Fold change vs veh, CDK5R1 / RFU, ZRANB3 / Fold change vs veh, ZRANB3 / RFU, CUL4A / Fold change vs veh, CUL4A / RFU, CCNY / Fold change vs veh, CCNY / RFU, UFL1 / Fold change vs veh, UFL1 / RFU, COG3 / Fold change vs veh, COG3 / RFU, DIAPH2 / Fold change vs veh, DIAPH2 / RFU, SKA2 / Fold change vs veh, SKA2 / RFU, AFF3 / Fold change vs veh, AFF3 / RFU, LMF1 / Fold change vs veh, LMF1 / RFU, IPO11 / Fold change vs veh, IPO11 / RFU, DFFB / Fold change vs veh, DFFB / RFU, FOXP1 / Fold change vs veh, FOXP1 / RFU, CARD8 / Fold change vs veh, CARD8 / RFU, STRN3 / Fold change vs veh, STRN3 / RFU, ADK / Fold change vs veh, ADK / RFU, RASSF2 / Fold change vs veh, RASSF2 / RFU, WIPF1 / Fold change vs veh, WIPF1 / RFU, LARP1B / Fold change vs veh, LARP1B / RFU, RASA1 / Fold change vs veh, RASA1 / RFU, RB1 / Fold change vs veh, RB1 / RFU, PPFIA1 / Fold change vs veh, PPFIA1 / RFU, MAT2A / Fold change vs veh, MAT2A / RFU, CCT5 / Fold change vs veh, CCT5 / RFU, WDR92 / Fold change vs veh, WDR92 / RFU, CUX1 / Fold change vs veh, CUX1 / RFU, TTC7A / Fold change vs veh, TTC7A / RFU, TMEM135 / Fold change vs veh, TMEM135 / RFU, DEPTOR / Fold change vs veh, DEPTOR / RFU, CPM / Fold change vs veh, CPM / RFU, DNAJB6 / Fold change vs veh, DNAJB6 / RFU, CACNA2D3 / Fold change vs veh, CACNA2D3 / RFU, DTX4 / Fold change vs veh, DTX4 / RFU, TFCP2 / Fold change vs veh, TFCP2 / RFU, GMCL1 /// GMCL1P1 / Fold change vs veh, GMCL1 /// GMCL1P1 / RFU, AEBP2 / Fold change vs veh, AEBP2 / RFU, SNHG1 /// SNORD22 /// SNORD25 /// SNORD26 /// SNORD27 /// SNORD28 /// SNORD29 /// SNORD31 / Fold change vs veh, SNHG1 /// SNORD22 /// SNORD25 /// SNORD26 /// SNORD27 /// SNORD28 /// SNORD29 /// SNORD31 / Fold change (Aza/veh), C12orf56 (ProbeSet 11735607_a_at) / Fold change (ACY-1035/veh), C12orf56 (ProbeSet 11735607_a_at) / Fold change (Aza/veh), FGFR1OP (ProbeSet 11751329_s_at) / Fold change (ACY-1035/veh), FGFR1OP (ProbeSet 11751329_s_at) / Fold change (Aza/veh), VPS36 (ProbeSet 11739960_a_at) / Fold change (ACY-1035/veh), VPS36 (ProbeSet 11739960_a_at) / RFU SYPL1 (11715823_x_at) / Fold change /veh SYPL1 (11715823_x_at) / RFU IGFBP7 (11715501_s_at) / Fold change /veh IGFBP7 (11715501_s_at) / RFU REEP3 (11722064_at) / Fold change /veh REEP3 (11722064_at) / RFU IGLL1 (11728026_x_at) / Fold change /veh IGLL1 (11728026_x_at): dose or concentration left out as unconfirmed
# Conditions: MV-4-11 cells, 48 hours
structure (smiles),measurement,value
Nc1ccc(-c2cccs2)cc1NC(=O)c1ccc2c(c1)cc(C1CC1)n2CCN1CCOCC1 [ACY-1035],RFU A4GNT (11735810_at),16.59 RFU
